Experimental findings from US20220087952A1, “ANTI-APICOMPLEXAN COMPOSITIONS” (priority 2019, published 2022) are described below.

Molecules are shown by their SMILES.

In data set [1] the test system is Eimeria arloingi oocyst extracted from goat feces. The experiment in a line: In-vitro oocyst sporulation assay (Example 2). The format is cell-based. Particulars: in Capra hircus, read-out: sporulation impairment (inhibition of sporulation) compared to control. The method, then: Eimeria-infected feces were collected from goats and stored at 4° C. Later, 3 grams of feces were mixed with 42 ml of tap water. The sample was homogenized and passed through a mesh, after which the filtered liquid was collected into 50 ml tubes. The liquid was then washed three times with cold tap water and centrifuged (1,700 G, 5 minutes, 20° C.). In each wash, the supernatant was carefully removed and approximately 30 to 40 ml of cold water was added. After the last wash, the water was removed and replaced with saturated sugar flotation solution (500 gr sucrose in 320 ml double distilled water), wherein each tube was filled with up to 45 ml of the sugar flotation solution. Each tube was centrifuged twice, wherein after each round of centrifugation, the ring-shaped phase formed on the top of the sugar solution was collected (about 1-2 ml collected after each round) and preserved in a 50 ml plastic tube.
The plastic tube was filled with cold water and centrifuged again. Oocysts were found in the sediment after centrifugation. The water was gently removed and the concentration of the oocysts was evaluated. The oocysts were then stored at 4° C. until use (the use of unsporulated oocysts that are older than two weeks was avoided). It is noted that a 2% potassium dichromate solution may be used for conservation. The unsporulated oocytes were washed in cold phosphate buffered saline (PBS, X10) before use in order to remove potassium dichromate (if used). The concentration of the oocysts was adjusted to approximately 30,000/ml.
Extract was prepared according to Example 1 above. Extract can be mixed with Phosphate buffer saline (PBS, X1, w:w, 1:10) if not perfectly soluble in water.
Each assay was in triplicates for each concentration of extract and gallic acid purchased at Sigma. In addition, six concentrations of gallic acid (50, 150, 250, 350, 450, 550 ppm) were added to 2000 and 4000 ppm of the invention extract to check synergism of gallic acid and the extract on impairment of sporulation. […]

Data set [2] deals with Eimeria spp. (Paracox 5 at twenty-fold dose). The experiment in a line: Eimeria-infected chicks given supplemented drinking water (Example 5). The format is in vivo. Particulars: d 14 relative to infection day; C uninfected, T infected; AS % antisolvent, GA ppm gallic acid in water.
Data set [3] is described as follows: Water intake and toxicity of supplemented drinking water in chicks (Example 5). Type of data set: in vivo. The text has this: (§1) Water was supplied in 3-liter poultry troughs that were re-filled when needed. Tap water was initially given and water supplementation was initiated three days after chicks' arrival. Water treatments for the uninfected (C) birds were no antisolvent and no gallic acid (C_AS0%_GA0) and 1% antisolvent with 500 ppm of gallic acid (C_AS1%_GA500).
(§2) Water treatments for the infected (T) birds were bi-factorial with 3 levels of antisolvent (AS; 0, 0.5, and 1%) and two levels of gallic acid (GA; 0 and 500 ppm) resulting in 6 groups: […], T_AS0.5%_GA0, T_AS1%_GA0, T_AS0.5%_GA0, T_AS0.5% _GA500, and T_AS1%_GA500.
(§3) Birds were wing-tagged and weighed on infection day and then, 7 days after infection. Half of the birds were weighed and humanely euthanized by exposure to CO2 on day 14 after infection and the second half on day 17 after infection. Water intake was recorded. Droppings were collected from a 1 m^2 paper sheet placed in each group 12 h before each weighing and kept at 4° C. until oocysts were counted under a grated microscope at ×100 and ×400 at days 0, and 7.
Data for body weight (BW) and average daily gain was log-transformed in order to homogenize variances. The C_AS0%_GA0 and […] in order to assess the effect of infection. The C_AS0%_GA0 and the C_AS1%_GA500 were compared to evaluate possible toxicity due to water treatment. […]

For data set [4], the system named is Eimeria spp. (Paracox 5 at twenty-fold dose). The experiment in a line: Eimeria-infected chicks given supplemented drinking water (Example 5). Type of data set: in vivo. Particulars: for Body weight of chicks (Means ± SE) / Average daily gain / Oocyst counts in droppings: C uninfected, T infected, AS % antisolvent, GA ppm gallic acid in water. The method, then:
160 chicks allotted to 8 treatments, encompassing two groups of uninfected birds and six groups of Eimeria-infected birds, were tested. Birds were administered water treatment from 7 days of age and infected when 10-days old.
Inoculation was individually, per os, by using a dose of Paracox 5, a live attenuated anticoccidial vaccine including administered at the twenty-fold the recommended dose (Table 2), in a volume of 1 ml, when chicks were 10 days old. Uninfected birds were given the same volume of saline. Eimeria spp were as in Table 2.
as §1, §2, §3
No existing method, based on mono-species Eimeria infection, was satisfactory. The duodenum was examined at three sites (proximal, medial, distal) and a separate score was recorded for each. In contrast, only one score was recorded for the ileum-jejunum, and one for the caeca. Organ scores were termed D (average of 3 sites along the duodenum), J, and C. Three composite scores were established: a. sum of the average duodenal score, the jejunal score and the caecal score; b. sum of the maximal duodenal, jejunal and caecal scores; c. number of lesion-affected organs (1-3).
Data for body weight (BW) and average daily gain was log-transformed in order to homogenize variances. The C_AS0%_GA0 and […] in order to assess the effect of infection. The C_AS0%_GA0 and the C_AS1%_GA500 were compared to evaluate possible toxicity due to water treatment. All groups encompassing bi-factorial levels of AS and GA were compared by bi-factorial ANOVA.
For the analysis of lesions, for each treatment and slaughter day, the Wilcoxon Rank Sum Test was run. Then, using the Iman-Connover method, a rank transformation was done on original data and a two-way ANOVA was run on the ranked data. The treatment x day interaction was significant for J. Sum DJC, and #organs affected and Pairwise comparisons were made by Tukey test.

For `O=C(O)c1cc(O)c(O)c(O)c1` [Gallic acid, gallic acid], in data set [1], the inhibition at 50 µg/mL was determined as 25%. Moreover, the results for the “Oocyst counts in droppings” value in data set [2], in data set [4] (d 0 relative to infection day) and in data set [4] (d 7 relative to infection day) were 3,600 gr^−1, 0 gr^−1 and 10,650 gr^−1, respectively. The Water intake in data set [3] (code: C uninfected, T infected, AS % antisolvent (0.5% = 5,000 ppm, 1% = 10,000 ppm), GA ppm gallic acid in water) was 132 ml chick^−1 dr^−1. Moreover, the signs of toxicity entry in data set [3] (in vivo) was “No signs of toxicity whatsoever”. The “Body weight of chicks (Means ± SE)” value was 1290.0 ± 83.4 ab in data set [4] (D 17 relative to infection day), 168.9 ± 4.3 in data set [4] (d 0 relative to infection day), 399.5 ± 13.4 a in data set [4] (d 7 relative to infection day) and 984.4 ± 40.1 ab in data set [4] (d 14 relative to infection day). Also, the Average daily gain came to 32.9 ± 1.4 g/day in data set [4] (Days 0-7), 53.2 ± 2.5 g/day in data set [4] (Days 8-14) and 99.9 ± 6.2 g/day in data set [4] (Days 14-17). In data set [4] (water treatment from 7 days of age, infection at 10 days, dose in label), the “growth performance / body weight of Eimeria-infected birds, in words” value is on record as “no advantage in adding gallic acid if an AS treatment was given”.
With `COc1cc(C(=O)O)ccc1O` [vanillic acid], the inhibition at 50 µg/mL in data set [1] turned out to be 23%.
The same measure, in the same setting: next, `O=C(O)/C=C/c1ccc(O)c(O)c1` [caffeic acid, Caffeic acid]: 43%.

As a reminder, the inhibition is how much of the control response was suppressed.
